The target of one data set is GSK3β (Homo sapiens, UniProt P49841). In words: Inhibitory activity against GSK3β (33P-ATP phosphorylation of prephosphorylated GS1 peptide, two protocols). In kind it is biochemical. On the procedure: Inhibitory Activity of the Medicament of the Present Invention Against GSK3β Two different protocols can be used. In a first protocol: 7.5 μM of prephosphorylated GS1 peptide and 10 μM ATP (containing 300,000 cpm of ^33P-ATP) were incubated in 25 mM Tris-HCl, pH 7.5, 0.6 mM DTT, 6 mM MgCl2, 0.6 mM EGTA, 0.05 mg/ml BSA buffer for 1 hour at room temperature in the presence of GSK3beta (total reaction volume: 100 microliters). In a second protocol: 4.1 μM of prephosphorylated GS 1 peptide and 42 μM ATP (containing 260,000 cpm ^33P-ATP) were incubated in 80 mM Mes-NaOH, pH 6.5, 1 mM Mg acetate, 0.5 mM EGTA, 5 mM 2-mercaptoethanol, 0.02% Tween 20, 10% glycerol buffer for 2 hours at room temperature in the presence of GSK3beta. Inhibitors were solubilised in DMSO (final solvent concentration in the reaction medium, 1%). The reaction was stopped with 100 microliters of a solution made of 25 g polyphosphoric acid (85% P2O5), 126 ml 85% H3PO4, H2O to 500 ml and then diluted to 1:100 before use. An aliquot of the reaction mixture was then transferred to Whatman P81 cation exchange filters and rinsed with the solution described above. Incorporated 33P radioactivity was determined by liquid scintillation spectrometry. The phosphorylated GS-1 peptide had the following sequence: • NH2-[…](P)EDEE-COOH.
Sequence of GSK3β (P49841 whole entry, species assumed): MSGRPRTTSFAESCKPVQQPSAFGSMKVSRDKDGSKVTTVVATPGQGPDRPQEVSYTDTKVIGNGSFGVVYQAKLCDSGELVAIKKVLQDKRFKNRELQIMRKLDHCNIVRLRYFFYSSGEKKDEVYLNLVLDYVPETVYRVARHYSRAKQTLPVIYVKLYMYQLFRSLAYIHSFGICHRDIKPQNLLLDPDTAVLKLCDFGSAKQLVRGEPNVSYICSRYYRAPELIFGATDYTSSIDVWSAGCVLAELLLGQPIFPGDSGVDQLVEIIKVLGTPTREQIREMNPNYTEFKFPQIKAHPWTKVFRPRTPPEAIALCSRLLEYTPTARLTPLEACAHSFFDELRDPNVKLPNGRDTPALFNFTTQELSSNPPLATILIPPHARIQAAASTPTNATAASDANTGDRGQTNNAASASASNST

Counter-ions that a name gives are not always drawn.

`Cn1c(N2CC3C[C@H]2CN3)nc(-c2ccncn2)cc1=O` (as salt: hydrochloride) displayed a melting point of 275 to 277 °C. For `Cn1c(N2CC3C[C@H]2CN3)nc(-c2ccncc2)cc1=O` (as salt: hydrochloride), the melting point was in the range of 240 to 242 °C. In turn, `Cn1c(N2CC3C[C@H]2CN3C(=O)c2ccc(Br)cc2)nc(-c2ccncn2)cc1=O` [Compound 24, (1S)-2-(5-(4-Bromo-benzoyl)-2,5-diaza-bicyclo[2.2.1]hept-2-yl)-1-methyl-1H-[4,4′]bipyrimidinyl-6-one] had a melting point of 142 to 144 °C. Also, half-maximal inhibition against GSK3β (IC50) required 6 nM. In turn, `Cc1ccc(N2C[C@@H]3CC2CN3c2nc(-c3ccncc3)cc(=O)n2C)cc1` [4′, (1S)-3-Methyl-6-pyridin-4-yl-2-(5-p-tolyl-2,5-diaza-bicyclo[2.2.1]hept-2-yl)-3H-pyrimidin-4-one] came in with a melting point of 123 to 125 °C. For the same compound, the midpoint of inhibition against GSK3β, the IC50, lay at 4 nM.

The record behind these values is patent US7211581B2, “Substituted 2-(diaza-bicyclo-alkyl)-pyrimidone derivatives” (Sanofi-Aventis, priority 2003, dated 2007).
